# Biological target: recombinant human PAI-1 (Homo sapiens, UniProt P05121)
# Assay: PAI-1 inhibitory activity, Test Method A (tPA fluorogenic substrate, Tris buffer pH8.0, 37 C)
# Assay type: biochemical
# Conditions: 25 μM test compound; Test Method A
# Sequence of recombinant human PAI-1 (P05121 24-402): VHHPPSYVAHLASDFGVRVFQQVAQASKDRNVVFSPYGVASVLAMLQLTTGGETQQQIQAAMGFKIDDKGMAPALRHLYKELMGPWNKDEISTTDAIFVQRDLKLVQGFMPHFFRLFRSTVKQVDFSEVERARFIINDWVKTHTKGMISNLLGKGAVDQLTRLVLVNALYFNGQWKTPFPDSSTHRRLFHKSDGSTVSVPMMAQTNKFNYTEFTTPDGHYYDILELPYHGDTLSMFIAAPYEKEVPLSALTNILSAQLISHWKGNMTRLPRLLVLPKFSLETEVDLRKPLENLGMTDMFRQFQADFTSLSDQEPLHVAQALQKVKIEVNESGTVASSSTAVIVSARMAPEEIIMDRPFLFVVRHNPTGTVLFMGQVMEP
row,Compound,Inhibitory Ratio at 25 μM (%)
1,O=C1SC(=Cc2cc([O-])c([O-])c(O)c2)C(=O)N1Cc1ccc(Cl)c(Cl)c1.[Na+].[Na+] [compound 338],85%
2,"COc1ccc(O)c(C=C2C(=O)N(c3ccc(Cl)c(Cl)c3)N=C2C(C)C)c1 [compound 518, 4-(2-hydroxy-5-methoxybenzylidene)-1-(3,4-dichlorophenyl)-3-isopropyl-2-pyrazolin-5-one]",83%
3,CC1=NN(c2cc(Cl)cc(Cl)c2)C(=O)C1=Cc1cc(O)c(O)cc1O [compound 501],>99%
4,O=C(Nc1ccc(O)c(O)c1)c1cc(C=C2SC(=O)N(Cc3cc(F)cc(F)c3)C2=O)ccc1O [compound 386],98%
5,CCOC1=NN(c2ccc([N+](=O)[O-])cc2)C(=O)C1=Cc1cc(Br)ccc1O [compound 513],72%
6,"CCOC1=NN(c2ccc([N+](=O)[O-])cc2)C(=O)C1=Cc1cc(C=Cc2ccccc2)ccc1O [compound 541, 4-(2-hydroxy-5-styrylbenzylidene)-1-(4-nitrophenyl)-3-ethoxy-2-pyrazolin-5-one]",>99%
7,CC(C)C1=NN(c2cc(Cl)cc(Cl)c2)C(=O)C1=Cc1cc(Br)ccc1O [compound 526],>99%
8,"COc1ccc(NC(=O)c2cc(C=C3SC(=O)N(Cc4cc(Cl)cc(Cl)c4)C3=O)ccc2O)cc1OC [compound 395, 5-[4-Hydroxy-3-(3,4-dimethoxyphenylcarbamoyl)benzylidene]-3-(3,5-dichlorobenzyl)thiazolidine-2,4-dione]",88%
9,O=C(Nc1cccc(C=C2SC(=O)N(Cc3ccc(Cl)c(Cl)c3)C2=O)c1)c1ccc(O)c(O)c1 [compound 370],>99%
10,O=C(Nc1ccc(O)c(O)c1)c1cc(C=C2SC(=O)N(CCc3ccc(Cl)cc3)C2=O)ccc1O [compound 377],81%
11,COc1ccc(C(C)(C)C)cc1NC(=O)c1cc(C=C2SC(=O)N(Cc3ccc(Cl)c(Cl)c3)C2=O)ccc1O [compound 467],>99%
12,O=C(Nc1ccc(Cl)nc1)c1cc(C=C2SC(=O)N(Cc3ccc(C(F)(F)F)cc3)C2=O)ccc1O [compound 392],>99%
13,"COc1ccc(C=Cc2ccccc2)cc1C=C1C(=O)N(c2ccc([N+](=O)[O-])cc2)N=C1C(C)C [compound 532, 4-(2-Methoxy-5-styrylbenzylidene)-1-(4-nitrophenyl)-3-isopropyl-2-pyrazolin-5-one]",78%
14,O=C(Cc1cccc(Oc2ccccc2)c1)Nc1cccc(CN2C(=O)SC(=Cc3ccc(O)c(O)c3)C2=O)c1 [compound 321],>99%
15,"COc1ccc(NC(=O)c2cc(C=C3SC(=O)N(Cc4ccc(Cl)c(Cl)c4)C3=O)ccc2O)cc1 [compound 353, 5-[4-hydroxy-3-(4-methoxyphenylcarbamoyl)benzylidene]-3-(3,4-dichlorobenzyl)thiazolidine-2,4-dione]",66%
16,"COc1ccc(NC(=O)c2cc(C=C3SC(=O)N(Cc4cccc(Oc5ccccc5)c4)C3=O)ccc2O)cc1OC [compound 399, 5-[4-Hydroxy-3-(3,4-dimethoxyphenylcarbamoyl)benzylidene]-3-(3-phenoxybenzyl)thiazolidine-2,4-dione]",>99%

row,Compound,Inhibitory Ratio at 25 μM (%)
1,"COc1cccc(NC(=O)c2cc(C=C3SC(=O)N(Cc4ccc(Cl)c(Cl)c4)C3=O)ccc2O)c1OC [compound 434, 5-[4-hydroxy-3-(2,3-dimethoxyphenylcarbamoyl)benzylidene]-3-(3,4-dichlorobenzyl)thiazolidine-2,4-dione]",>99%
2,"O=C1SC(=Cc2ccc(O)c(O)c2)C(=O)N1Cc1cnc(Cl)c(Cl)c1 [compound 304, 5-(3,4-Dihydroxybenzylidene)-3-[(5,6-dichloropyridin-3-yl)-methyl]thiazolidine-2,4-dione]",>99%
3,COc1cc(C=C2SC(=O)N(Cc3ccc(Cl)c(Cl)c3)C2=O)cc(C(=O)Nc2cc(C(F)(F)F)ccc2Cl)c1O [compound 439],89%
4,"O=C1SC(=Cc2cccc(Oc3ccccc3)c2)C(=O)N1Cc1cc(O)c(O)c(O)c1 [compound 310, 5-(3-Phenoxybenzylidene)-3-(3,4,5-trihydroxybenzyl)thiazolidine-2,4-dione]",>99%
5,O=C1SC(=Cc2ccc(Cl)c(O)c2)C(=O)N1Cc1ccc(Cl)c(Cl)c1 [compound 328],63%
6,CC(C)C1=NN(c2ccc(Cl)c(Cl)c2)C(=O)C1=Cc1cc(O)ccc1O [compound 519],80%
7,O=C(Nc1ccc2c(c1)OCO2)c1cc(C=C2SC(=O)N(Cc3ccc(Cl)c(Cl)c3)C2=O)ccc1O [compound 428],86%
8,COC(=O)c1ccc(C(=O)n2cc(C=C3SC(=O)N(Cc4ccc(Cl)c(Cl)c4)C3=O)c3ccccc32)cc1 [compound 427],85%
9,COc1ccc(C(F)(F)F)cc1NC(=O)c1cc(C=C2SC(=O)N(Cc3ccc(Cl)c(Cl)c3)C2=O)ccc1O [compound 468],>99%
10,O=C1SC(=Cc2cccc(O)c2O)C(=O)N1Cc1cccc(Nc2ccccc2)c1 [compound 319],>99%
11,COc1cc(C=C2SC(=O)N(Cc3ccc(Cl)c(Cl)c3)C2=O)cc(C(=O)Nc2ccccc2)c1O [compound 440],82%
12,COCC1=NN(c2cc(Cl)cc(Cl)c2)C(=O)C1=Cc1cc(C=Cc2ccccc2)ccc1O [compound 524],>99%
13,CCOC(=O)Oc1ccc(C=C2SC(=O)N(Cc3ccc(Cl)cc3Cl)C2=O)cc1OC(=O)OCC [compound 337],43%
14,CCOC(=O)CCC1=NN(c2ccccc2)C(=O)C1=Cc1cc(O)c(O)cc1O [compound 514],56%
15,O=C1SC(=Cc2ccc(F)c(O)c2)C(=O)N1Cc1ccc(Cl)c(Cl)c1 [compound 326],66%

# Same assay, conditions: 50% inhibitory concentration of PAI-1 activity, according to the aforementioned method
row,Compound,IC50
1,CC1=NN(c2cc(Cl)cc(Cl)c2)C(=O)C1=Cc1cc(O)c(O)cc1O [compound 501],810 nM

# Same assay, conditions: test compound 25 μM; Test Method A
row,Compound,Inhibitory Ratio at 25 μM (%)
1,O=C1SC(=Cc2ccc(O)c(O)c2)C(=O)N1Cc1ccc(Cl)cc1 [compound 33],>99%
2,O=C1C(=Cc2ccc(O)c(O)c2)C(c2ccccc2)=NN1c1ccc(Cl)c(Cl)c1 [compound 221],>99%
3,CC1=NN(c2cccc(C(=O)O)c2)C(=O)C1=Cc1ccc(-c2cc(Cl)cc(Cl)c2)o1 [compound 191],59%
4,COc1cc(C=C2SC(=O)N(Cc3ccc(Cl)c(Cl)c3)C2=O)cc(O)c1O [compound 38],>99%
5,Cc1cc(C)cc(CN2C(=O)SC(=Cc3ccc(O)c(O)c3)C2=O)c1 [compound 27],>99%
6,CC(C)C1=NN(c2cc(Cl)cc(Cl)c2)C(=O)C1=Cc1cc(O)c(O)c(O)c1 [compound 130],>99%
7,"O=C1SC(=Cc2ccc(O)c(O)c2)C(=O)N1Cc1cc(Br)cc(Br)c1 [compound 46, 5-(3,4-Dihydroxybenzylidene)-3-(3,5-dibromobenzyl)thiazolidine-2,4-dione]",>99%
8,O=C1C(=Cc2ccc(O)c(O)c2O)C(c2ccccc2)=NN1c1ccc(Cl)c(Cl)c1 [compound 148],62%
9,O=C1SC(=Cc2cc([N+](=O)[O-])ccc2O)C(=O)N1Cc1ccc(Cl)c(Cl)c1 [compound 55],77%
10,"O=C1SC(=Cc2ccc(O)c(O)c2)C(=O)N1Cc1ccc(Oc2ccccc2)cc1 [compound 60, 5-(3,4-Dihydroxybenzylidene)-3-(4-phenoxybenzyl)thiazolidine-2,4-dione]",>99%
11,CCOc1cc(C=C2C(=O)N(c3cccc(C(F)(F)F)c3)N=C2C)ccc1OCC(=O)O [compound 159],32%
12,"COC(=O)c1cccc(N2N=C(C(F)(F)F)C(=Cc3ccc(-c4cc(C(F)(F)F)cc(C(F)(F)F)c4)o3)C2=O)c1 [compound 177, 4-({5-[3,5-Bis(trifluoromethyl)phenyl]furan-2-yl}methylene)-1-(3-methoxycarbonylphenyl)-3-trifluoromethyl-2-pyrazolin-5-one]",86%
13,O=C(O)c1cccc(N2N=C(C(F)(F)F)C(=Cc3ccc(-c4cc(Cl)cc(Cl)c4)s3)C2=O)c1 [compound 184],43%
14,O=C(O)c1cccc(-c2ccc(C=C3SC(=S)N(c4cccc(F)c4)C3=O)o2)c1 [compound 62],36%
15,"CC(C)C1=NN(c2cccc([N+](=O)[O-])c2)C(=O)C1=Cc1ccc(Br)o1 [compound 200, 4-[(5-Bromofuran-2-yl)methylene]-1-(3-nitrophenyl)-3-isopropyl-2-pyrazolin-5-one]",53%
16,O=C1C(=Cc2ccc(O)c(O)c2)C(C(F)(F)F)=NN1c1cccc([N+](=O)[O-])c1 [compound 137],>99%
17,CCOC(=O)C1=NN(c2cccc(C(=O)OCC)c2)C(=O)C1=Cc1ccc(-c2cc(Cl)cc(Cl)c2)o1 [compound 185],89%
18,O=C1SC(=Cc2cc(O)c(O)c(O)c2)C(=O)N1Cc1cccc([N+](=O)[O-])c1 [compound 52],50%
19,O=C(O)c1cccc(N2N=C(c3ccccc3)C(=Cc3ccc(-c4cc(C(F)(F)F)cc(C(F)(F)F)c4)o3)C2=O)c1 [compound 217],>99%
20,O=C1SC(=Cc2ccc(O)c(O)c2)C(=O)N1Cc1cc(C(F)(F)F)cc(C(F)(F)F)c1 [compound 4],>99%
21,CC1=NN(c2ccccc2)C(=O)C1=Cc1ccc(-c2cc(C(=O)O)ccc2Cl)o1 [compound 163],54%
22,O=C1C(=Cc2ccc(O)c(O)c2O)C(C(F)(F)F)=NN1c1cc(Cl)cc(Cl)c1 [compound 150],>99%
23,COc1cc(C=C2C(=O)N(c3cccc(C(=O)O)c3)N=C2C)cc(Br)c1OCC(=O)NCc1ccccc1 [compound 174],62%
24,COc1cccc(N2N=C(C(C)C)C(=Cc3ccc(O)c(O)c3)C2=O)c1 [compound 126],44%
25,O=C1SC(=Cc2cccc(O)c2O)C(=O)N1Cc1cc(Br)cc(Br)c1 [compound 47],>99%

# Source: US20070276011A1, “Plasminogen Activator Inhibitor-1 Inhibitor” (priority 2003, published 2007)
